# Reference: patent publication US7074807B2, “Compositions and methods for inducing cell death” (Georgetown University, priority 1998, dated 2006)
# Key:
# SAPK = SAPK tyrosine phosphorylation (anti-SAPK IP, anti-PY immunoblot); assay type: cell-based, human; conditions: 10 mM, time course, vs tempol or untreated controls
# Method: FIGS. 5A, 5B, 5C. Tempo stimulates tyrosine phosphorylation and activity of SAPK. […] 5A. WCLs (1 mg) were immunoprecipitated with agarose-conjugated anti-SAPK antibody, followed by immunoblotting with anti-PY MAb. 5B. In other independent experiments, anti-SAPK immunoprecipitates were first probed with anti-PY MAb (top), and the blot was then reprobed with anti-SAPK antibody (bottom). 5C. […] WCLs were immunoprecipitated with anti-JNK1 antibody, and the JNK1 activity in immunoprecipitates was measured using GST-cJun (˜41 kDa) as a substrate. UT, untreated cells grown overnight in serum-free medium; CONT/Control, cells grown in serum-free medium overnight, and treated with 1% ethanol for 2 h.
# Immunoprecipitation and Immunoblotting—Whole cell lysate (1 mg) was immunoprecipitated with the appropriate agarose-conjugated antibody (1 ug/ml of lysis buffer) overnight at 4° C. with constant agitation. For SAPK immunoprecipitation, WCL (1 mg) was immunoprecipitated with anti-SAPK antibody (5 ug/ml) overnight followed by addition of protein A-Agarose (50 ul of 250 ul/ml stock) and incubation for 2 h at 4° C. Immune-complex beads were collected by microcentrifugation at 15,000×g for 5 min followed by three washes with lysis buffer. […] The bands of interest were quantified by ImageQuant software version 3.3 (Molecular Dynamics Personal Densitometer, Sunnyvale, Calif.). […]
# [1] = tested on: MDA-MB231 human breast tumor xenografts; experiment: Tumor growth study, MDA-MB231 breast tumor xenografts in athymic mice; assay type: in vivo; conditions: 200 mg/kg intratumoral once daily for 8 days, vs 10% ethanol vehicle group
# Method: FIGS. (13A), (13B1–13B2) illustrates the effects of tempo on the growth of human breast tumor xenografts in athymic mice. 13A. Tempo (200 mg/kg) was administered intratumorally once daily for a total of 8 days (*). Control group was treated simultaneously with an equal volume of ethanol (10%). Experiment was terminated when the control tumor volumes exceeded the recommended tumor burden. Each point represents mean q S.E. (n=4). […] (13B1–13B2). Representative tumor-bearing mice. Mice were treated with 10% ethanol (13B1) or tempo (13B2) as explained above.
# MDA-MB231 cells (1×10^6) were inoculated subcutaneously in the right flank of 4–6 week-old female athymic mice. Tumor growth was monitored biweekly. Mice bearing tumor volumes in the range of 80–100 mm^3 were randomly selected for treatment. Tempo treatment was initiated (50 mg/kg–200 mg/kg, intratumoral, once daily, for a total of 8 days), and tumor volumes were measured for a total 25 days from the start of treatment.
# [2] = Apoptosis assay (annexin V-FITC/propidium iodide flow cytometry); conditions: human
# Method: FIGS. (7A1–7A3), (7B1–7B2), (7C1–7C3), (7D1–7D2), (7E1–7E3), (7F1–7F2). […] Cells were grown in serum-free medium overnight in T-25 flasks and treated with tempol (10 mM) or tempo (10 mM) for various times, trypsinized, and then resuspended in 200 ul 1× binding buffer as described in experimental procedures. The cell suspension was double-stained with annexin V-FITC and propidium iodide and analyzed by flow cytometry. Background signal was determined by comparison with double-stained, single-stained, or unstained control cells. (7A1–7A3), (7C1–7C3), and (7E1–7E3) are cytograms showing a relative distribution of viable (V), apoptotic (A), and necrotic (N) cells at 2 h following tempol or tempo treatment of MDA-MB 231 cells (A), PCI-04A cells (C), and PC-3 cells (E). (7B1–7B3), (7D1–7D2), and (7F1–7F2) are time course analyses of MDA-MB 231 cells (B), PCT-04A cells (D), and PC-3 cells (F). 100,000 cells were analyzed at each time point in triplicate (B) or quadruplicate (D and F). Solid bars, 1% ethanol, striped bars, 10 mM tempol, empty bars, 10 mM tempo. […] Data shown are representative from three to four independent experiments. (7B1–7B2), Time course analysis of MDA-MB 231 cells undergoing apoptosis (annexin V-FITC staining) (7B1), or necrosis (propidium iodide staining) (7B2). Values shown are mean±s.d. of triplicate determinations per time point in each treatment category, and representative of three to four independent experiments. […] (7D1–7D2), Time course analysis of PCI-04A cells undergoing apoptosis (annexin V-FITC staining) (7D1), or necrosis (propidium iodide staining) (7D2). Values shown are mean±s.d. of quadruplicate determinations per time point in each treatment category. […] (7F1–7F2), Time course analysis of PC-3 cells undergoing apoptosis (annexin V-FITC staining) (7F1), or necrosis (propidium iodide staining) (7F2). Values shown are mean±s.d. of quadruplicate determinations per time point in each treatment category. Control/C, cells treated with 1% ethanol for 2 h.
# Apoptosis Assay—ApoAlert Annexin V apoptosis detection system (Clontech Lab Inc., Palo Alto, Calif.) was used to measure the relative distribution of apoptotic and necrotic cells. Briefly, cells were seeded at a density of 1×10^6 cells per 25 cm^2 tissue culture flask in medium containing 10% FBS overnight, followed by washing twice in serum-free medium. Cells were maintained overnight in serum-free medium and exposed to tempol (10 mM) or tempo (10 mM) for various times. This was followed by rinsing twice with serum-free medium prior to trypsinization, dilution in two volumes of serum-free medium, and centrifugation at 10,000× g. The cell pellet was washed once with PBS and resuspended in 200 ul of 1× binding buffer. The cell suspension was double-labeled with fluorescein isothiocyanate (FITC)-labeled annexin V (10 ul) and propidium iodide (PI) (10 ul) according to the manufacturer's instructions. Unlabeled cells or untreated cells labeled with either FITC-annexin V or PI, or double-labeled served as internal controls for the background signal. The intensity of the dye uptake by cells was detected using FACStar plus Flow Cytometer (Becton Dickerson, Lincoln Park, N.J.), and data were analyzed using Reproman True Facts software (Seattle, Wash.). Viable cells were FITC−/PI−, apoptotic cells were FITC+/PI−, and necrotic cells were FITC+/PI+.
SMILES,level of phosphorylated SAPK (SAPKP) (SAPK),tumor growth rate [1],"viability at 2 h, 10 mM [2] [%]"
"CC1(C)CCCC(C)(C)N1[O] [tempo, 2,2,6,6-tetramethylpiperidine-N-oxyl]",significant increase,significant decline in tumor growth rate,
"CC1(C)CC(O)CC(C)(C)N1[O] [tempol, 4-hydroxy-tempo, reference compound]",,,92.3
